# Results published in publication PMC3501516, “Anti-Diabetic Efficacy and Impact on Amino Acid Metabolism of GRA1, a Novel Small-Molecule Glucagon Receptor Antagonist” (PLoS ONE, 2012).
# Tests used:
# human GCGR (hGCGR) = molecular target: T1, human GCGR (hGCGR) (Homo sapiens, UniProt P47871); experiment: Inhibition of 125I-glucagon binding to hGCGR in membranes of CHO cells expressing hGCGR; conditions: CHO cell membranes
# T1 construct: expressed in transfected cells
# Text: (§1) Transfected Chinese hamster ovary (CHO) cell lines were acquired and maintained as previously described, [20]. These included separate cell lines stably expressing human GCGR (hGCGR), mouse GCGR, rhesus GGCR, glucose-dependent insulinotropic peptide receptor (GIPR), GLP-1 receptor (GLP-1R), pituitary adenylate cyclase-activating polypeptide receptor type 1 (PAC1R), and vasoactive adenylate cyclase-activating polypeptide receptor type 2 (VPAC2R). Inhibition of glucagon binding to hGCGR was assayed in cell membranes prepared from the line of CHO cells that expressed the hGCGR. Functional antagonism was assayed by measuring the production of cAMP in intact CHO cells stimulated by agonists specific for their cognate receptors (i.e., glucagon for GCGR-expressing cell lines, GIP for the GIPR-expressing line, etc.). Primary human hepatocytes were obtained from In Vitro Technologies (Baltimore, MD) and glucagon-stimulated glycogenolysis was studied in these as previously described.
# [1] = molecular target: T2, PAC1R (pituitary adenylate cyclase-activating polypeptide receptor type 1) (Homo sapiens, UniProt P41586); experiment: Inhibition of agonist-stimulated cAMP production in CHO cells expressing PAC1R; format: cell-based; conditions: PAC1-stimulated
# T2 construct: expressed in transfected cells
# T2 sequence (P41586 21-468): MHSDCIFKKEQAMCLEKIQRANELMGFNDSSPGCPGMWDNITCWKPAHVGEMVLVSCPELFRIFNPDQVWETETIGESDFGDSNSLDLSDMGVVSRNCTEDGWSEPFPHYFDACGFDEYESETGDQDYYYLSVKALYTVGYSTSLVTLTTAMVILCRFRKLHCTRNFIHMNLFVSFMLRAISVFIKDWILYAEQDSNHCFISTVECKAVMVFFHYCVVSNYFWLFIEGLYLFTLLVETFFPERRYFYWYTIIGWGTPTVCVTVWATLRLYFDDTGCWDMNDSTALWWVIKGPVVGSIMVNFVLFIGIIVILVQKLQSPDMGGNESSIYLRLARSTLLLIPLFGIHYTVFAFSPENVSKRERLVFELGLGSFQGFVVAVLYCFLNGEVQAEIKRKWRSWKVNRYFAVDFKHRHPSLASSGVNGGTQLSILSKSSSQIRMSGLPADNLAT
# Text: as §1
# [2] = molecular target: T3, VPAC2R (vasoactive adenylate cyclase-activating polypeptide receptor type 2) (Homo sapiens, UniProt P41587); experiment: Inhibition of agonist-stimulated cAMP production in CHO cells expressing VPAC2R; format: cell-based; conditions: VPAC2-stimulated
# T3 construct: expressed in transfected cells
# T3 sequence (P41587 24-438): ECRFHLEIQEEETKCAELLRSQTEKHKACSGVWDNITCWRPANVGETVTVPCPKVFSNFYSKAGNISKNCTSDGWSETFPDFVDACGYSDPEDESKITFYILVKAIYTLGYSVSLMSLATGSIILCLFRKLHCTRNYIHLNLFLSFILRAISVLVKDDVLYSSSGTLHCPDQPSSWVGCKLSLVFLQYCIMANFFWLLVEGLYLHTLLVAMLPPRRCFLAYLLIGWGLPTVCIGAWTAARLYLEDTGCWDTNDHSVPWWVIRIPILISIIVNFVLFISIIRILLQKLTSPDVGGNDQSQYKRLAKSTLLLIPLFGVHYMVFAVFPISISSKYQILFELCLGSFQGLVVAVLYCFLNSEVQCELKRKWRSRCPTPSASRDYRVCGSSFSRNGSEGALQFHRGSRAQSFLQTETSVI
# Text: as §1
# rhesus monkeys = experiment: Fasted plasma glucagon, glucose and amino acids in rhesus monkeys dosed 14 days; format: in vivo, rhesus monkey
# Method: In a follow-up experiment, adult rhesus monkeys were dosed once daily for 14 days with 30 mg/kg GRA1 or vehicle (0.5% methylcellulose plus 0.02% sodium dodecyl sulfate in 2 mL/kg water) delivered by oral gavage. Blood samples were collected on days 0, 1, 7, and 14 after the animals had fasted overnight. Plasma concentrations of glucose, glucagon, and amino acids were assayed by the Hormone Assay & Analytical Services Core at Vanderbilt University (Nashville, TN).
# [3] = rhesus, 30 mg/kg once daily, Day 0
# [4] = rhesus, 30 mg/kg once daily, Day 1
# [5] = rhesus, 30 mg/kg once daily, Day 7
# [6] = rhesus, 30 mg/kg once daily, Day 14
# T1 sequence (P47871 26-477): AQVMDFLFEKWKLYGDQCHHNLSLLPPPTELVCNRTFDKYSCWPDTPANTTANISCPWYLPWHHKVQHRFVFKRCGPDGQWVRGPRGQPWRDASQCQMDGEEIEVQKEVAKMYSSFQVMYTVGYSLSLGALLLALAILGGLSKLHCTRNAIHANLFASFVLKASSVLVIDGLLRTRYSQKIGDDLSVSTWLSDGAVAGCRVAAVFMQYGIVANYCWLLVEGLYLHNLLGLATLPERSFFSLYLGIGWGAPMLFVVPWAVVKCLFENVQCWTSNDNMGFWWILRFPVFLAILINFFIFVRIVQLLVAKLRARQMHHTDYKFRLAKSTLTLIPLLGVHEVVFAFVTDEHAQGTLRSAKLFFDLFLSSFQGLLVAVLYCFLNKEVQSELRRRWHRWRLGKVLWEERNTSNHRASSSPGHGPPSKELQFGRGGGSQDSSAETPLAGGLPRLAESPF
smiles,measurement,setting,value
"COc1ccc2cc(-c3cc(-c4cc(C(F)(F)F)ccc4F)nn3[C@@H](C)c3ccc(C(=O)NCCC(=O)O)cc3)ccc2c1 [GRA1, N-[4-((1S)-1-{3-(2-fluoro-5-trifluoromethylphenyl)-5-[6-methoxynaphth-2-yl]-1H-pyrazol-1-yl}ethyl)benzoyl]-β-alanine]",IC50,human GCGR (hGCGR),0.004 µM
same,IC50,[1],7.85 µM
same,IC50,[2],4.2 µM
same,Hypoglycemia,"rhesus monkeys; normoglycemic rhesus, 30 mg/kg once daily, 14 days",not rendered hypoglycemic
same,Plasma insulin,"rhesus monkeys; rhesus, 30 mg/kg once daily (data not shown)",unaffected
same,"Alanine, fasted plasma",rhesus monkeys; [3],200 ± 21 µM
same,"Arginine, fasted plasma",rhesus monkeys; [3],124 ± 15 µM
same,"Asparagine, fasted plasma",rhesus monkeys; [3],61.2 ± 17.8 µM
same,"Aspartic acid, fasted plasma",rhesus monkeys; [3],5.3 ± 1.3 µM
same,"Glucagon, fasted plasma",rhesus monkeys; [3],381 ± 74 pg/mL
same,"Glucose, fasted plasma",rhesus monkeys; [3],85.3 ± 9.4 mg/dL
same,"Glutamic acid, fasted plasma",rhesus monkeys; [3],48.1 ± 3.6 µM
same,"Glutamine, fasted plasma",rhesus monkeys; [3],597 ± 66 µM
same,"Glycine, fasted plasma",rhesus monkeys; [3],300 ± 32 µM
same,"Histidine, fasted plasma",rhesus monkeys; [3],121 ± 11 µM
same,"Hydroxyproline, fasted plasma",rhesus monkeys; [3],12.9 ± 2.3 µM
same,"Isoleucine, fasted plasma",rhesus monkeys; [3],98.2 ± 8.3 µM
same,"Leucine, fasted plasma",rhesus monkeys; [3],147 ± 9 µM
same,"Lysine, fasted plasma",rhesus monkeys; [3],191 ± 25 µM
same,"Methionine, fasted plasma",rhesus monkeys; [3],22.9 ± 2.7 µM
same,"Phenylalanine, fasted plasma",rhesus monkeys; [3],47.8 ± 2.4 µM
same,"Proline, fasted plasma",rhesus monkeys; [3],118 ± 13 µM
same,"Serine, fasted plasma",rhesus monkeys; [3],123 ± 8 µM
same,"Threonine, fasted plasma",rhesus monkeys; [3],95.2 ± 5.9 µM
same,"Tyrosine, fasted plasma",rhesus monkeys; [3],77.2 ± 6.8 µM
same,"Valine, fasted plasma",rhesus monkeys; [3],256 ± 21 µM
same,"Alanine, fasted plasma",rhesus monkeys; [4],500 ± 79 µM
same,"Arginine, fasted plasma",rhesus monkeys; [4],237 ± 33 µM
same,"Asparagine, fasted plasma",rhesus monkeys; [4],42.5 ± 8.3 µM
same,"Aspartic acid, fasted plasma",rhesus monkeys; [4],5.6 ± 0.7 µM
same,"Glucagon, fasted plasma",rhesus monkeys; [4],921 ± 16 pg/mL
same,"Glucose, fasted plasma",rhesus monkeys; [4],63.7 ± 2.7 mg/dL
same,"Glutamic acid, fasted plasma",rhesus monkeys; [4],71.9 ± 5.7 µM
same,"Glutamine, fasted plasma",rhesus monkeys; [4],986 ± 150 µM
same,"Glycine, fasted plasma",rhesus monkeys; [4],533 ± 70 µM
same,"Histidine, fasted plasma",rhesus monkeys; [4],153 ± 14 µM
same,"Hydroxyproline, fasted plasma",rhesus monkeys; [4],15.4 ± 2.3 µM
same,"Isoleucine, fasted plasma",rhesus monkeys; [4],72.4 ± 7.9 µM
same,"Leucine, fasted plasma",rhesus monkeys; [4],164 ± 24 µM
same,"Lysine, fasted plasma",rhesus monkeys; [4],390 ± 56 µM
same,"Methionine, fasted plasma",rhesus monkeys; [4],50.2 ± 10.0 µM
same,"Phenylalanine, fasted plasma",rhesus monkeys; [4],52.6 ± 7.0 µM
same,"Proline, fasted plasma",rhesus monkeys; [4],326 ± 54 µM
same,"Serine, fasted plasma",rhesus monkeys; [4],228 ± 24 µM
same,"Threonine, fasted plasma",rhesus monkeys; [4],179.1 ± 25.1 µM
same,"Tyrosine, fasted plasma",rhesus monkeys; [4],161.4 ± 26.8 µM
same,"Valine, fasted plasma",rhesus monkeys; [4],252 ± 33 µM
same,"Alanine, fasted plasma",rhesus monkeys; [5],456 ± 68 µM
same,"Arginine, fasted plasma",rhesus monkeys; [5],341 ± 76 µM
same,"Asparagine, fasted plasma",rhesus monkeys; [5],54.2 ± 10.8 µM
same,"Aspartic acid, fasted plasma",rhesus monkeys; [5],6.7 ± 1.2 µM
same,"Glucagon, fasted plasma",rhesus monkeys; [5],874 ± 101 pg/mL
same,"Glucose, fasted plasma",rhesus monkeys; [5],69.2 ± 4.9 mg/dL
same,"Glutamic acid, fasted plasma",rhesus monkeys; [5],98.9 ± 15.2 µM
same,"Glutamine, fasted plasma",rhesus monkeys; [5],1186 ± 164 µM
same,"Glycine, fasted plasma",rhesus monkeys; [5],558 ± 74 µM
same,"Histidine, fasted plasma",rhesus monkeys; [5],170 ± 15 µM
same,"Hydroxyproline, fasted plasma",rhesus monkeys; [5],23.3 ± 5.3 µM
same,"Isoleucine, fasted plasma",rhesus monkeys; [5],88.6 ± 8.2 µM
same,"Leucine, fasted plasma",rhesus monkeys; [5],215 ± 44 µM
same,"Lysine, fasted plasma",rhesus monkeys; [5],340 ± 71 µM
same,"Methionine, fasted plasma",rhesus monkeys; [5],36.1 ± 5.6 µM
same,"Phenylalanine, fasted plasma",rhesus monkeys; [5],49.7 ± 3.3 µM
same,"Proline, fasted plasma",rhesus monkeys; [5],490 ± 95 µM
same,"Serine, fasted plasma",rhesus monkeys; [5],256 ± 41 µM
same,"Threonine, fasted plasma",rhesus monkeys; [5],160.9 ± 21.3 µM
same,"Tyrosine, fasted plasma",rhesus monkeys; [5],110.6 ± 7.9 µM
same,"Valine, fasted plasma",rhesus monkeys; [5],260 ± 17 µM
same,"Alanine, fasted plasma",rhesus monkeys; [6],361 ± 51 µM
same,"Arginine, fasted plasma",rhesus monkeys; [6],282 ± 54 µM
same,"Asparagine, fasted plasma",rhesus monkeys; [6],33.8 ± 4.8 µM
same,"Aspartic acid, fasted plasma",rhesus monkeys; [6],5.9 ± 0.8 µM
same,"Glucagon, fasted plasma",rhesus monkeys; [6],984 ± 186 pg/mL
same,"Glucose, fasted plasma",rhesus monkeys; [6],69.2 ± 3.8 mg/dL
same,"Glutamic acid, fasted plasma",rhesus monkeys; [6],91.9 ± 10.0 µM
same,"Glutamine, fasted plasma",rhesus monkeys; [6],1151 ± 191 µM
same,"Glycine, fasted plasma",rhesus monkeys; [6],531 ± 76 µM
same,"Histidine, fasted plasma",rhesus monkeys; [6],187 ± 21 µM
same,"Hydroxyproline, fasted plasma",rhesus monkeys; [6],15.3 ± 2.3 µM
same,"Isoleucine, fasted plasma",rhesus monkeys; [6],89.6 ± 7.8 µM
same,"Leucine, fasted plasma",rhesus monkeys; [6],218 ± 36 µM
same,"Lysine, fasted plasma",rhesus monkeys; [6],375 ± 70 µM
same,"Methionine, fasted plasma",rhesus monkeys; [6],34.7 ± 6.3 µM
same,"Phenylalanine, fasted plasma",rhesus monkeys; [6],51.5 ± 1.8 µM
same,"Proline, fasted plasma",rhesus monkeys; [6],415 ± 84 µM
same,"Serine, fasted plasma",rhesus monkeys; [6],217 ± 28 µM
same,"Threonine, fasted plasma",rhesus monkeys; [6],155.3 ± 23.3 µM
same,"Tyrosine, fasted plasma",rhesus monkeys; [6],105.8 ± 9.9 µM
same,"Valine, fasted plasma",rhesus monkeys; [6],276 ± 20 µM
same,Increase of plasma glucagon relative to vehicle-treated controls,"rhesus monkeys; rhesus, 30 mg/kg once daily, both Day 1 and Day 7",approximately 3 fold
